Results reported in patent US20220096449A1, “METHOD OF TREATMENT WITH TRADIPITANT” (Vanda Pharmaceuticals Inc., priority 2018, published 2022).
“And” between values parts separate entries of the source, which are not always exact repeats. Equal entries are not always repeated. Marks after values point to notes of the source that are not given here.

Experiments:
NK-1 receptor = target: T1, NK-1 receptor (Cavia porcellus, UniProt P30547); test: GR73632-induced vocalization in guinea pigs; type: in vivo, guinea pig
T1 construct: from tissue; host or cells: living guinea pigs (central NK-1 receptors)
T1 sequence (P30547 whole entry): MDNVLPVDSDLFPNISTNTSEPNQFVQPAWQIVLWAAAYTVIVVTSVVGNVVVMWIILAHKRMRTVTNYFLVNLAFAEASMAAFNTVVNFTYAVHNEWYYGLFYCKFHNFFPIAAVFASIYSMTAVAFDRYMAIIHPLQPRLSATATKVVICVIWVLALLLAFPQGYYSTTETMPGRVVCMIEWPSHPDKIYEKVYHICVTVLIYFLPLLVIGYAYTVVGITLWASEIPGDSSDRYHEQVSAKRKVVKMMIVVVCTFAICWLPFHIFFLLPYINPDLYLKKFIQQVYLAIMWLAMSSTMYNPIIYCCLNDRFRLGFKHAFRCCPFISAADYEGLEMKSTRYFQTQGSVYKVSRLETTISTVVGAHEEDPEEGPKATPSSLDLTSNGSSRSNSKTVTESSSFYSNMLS
Description: Male Dunkin/Hartley guinea pigs (200 to 250 grams) are orally administered either vehicle or an NK-1 antagonist. Approximately 45 minutes later (for dose response studies), the animals are anesthetized and 0.1 nmol of GR73632 (SP analog) in a vehicle volume of 5 μl is injected into the cerebral ventricle at the intersection of bregma and the midline of the skull. Animals are placed in a dark testing chamber located inside of a sound attenuation cubicle and vocalizations are recorded for 30 minutes following recovery from anesthesia. The time spent vocalizing is quantified for each animal. In the duration of action study, 0.1 mg/kg of tradipitant or vehicle solution is administered orally and then 2, 4, or 7 hours later, 0.1 nmol of GR73632 is administered into the cerebral ventricle as described above. Vocalizations are recorded and quantified as indicated above. Vehicle solutions are either CMC (FIG. 4 data) or an ethanol/emulphor solution (FIGS. 5 and 6). Data is analyzed using one-tailed t-tests.

[1] = tested on: apomorphine-induced emesis; test: Apomorphine emetic challenge in beagle dogs; type: in vivo, beagle dog; details: for Total No. Emetic Episodes: apomorphine 0.1 mg/kg iv 2 hours later, 5 dogs
Description: Over the five (5) weeks of the study, each animal receives each of the treatments, but only one per week. The purpose of this study is to determine if tradipitant suppresses apomorphine-induced emesis.
All animals are dosed over a period of five (5) weeks, with each dog receiving one of five different treatments on each day of dosing.
All dogs are fasted overnight prior to each treatment day and then fed approximately one (1) hour after oral dosing (approximately one (1) hour prior to administration of apomorphine). Individual doses are adjusted weekly for changes in body weight.
The dose regimen consists of a 5×5 Latin square design, in which each subject receives 1 dose or dose combination per week (6 day washout) as shown in Table 3 below.

[2] = tested on: patients with idiopathic and diabetic gastroparesis; test: Phase II study VLY-686-2301, double blind randomized portion (Example 5); type: in vivo, human; details: for CGI-S, change from baseline / DD-% Nausea Free Days, change from baseline / DD-Nausea (Daily Diary Nausea Score, 0-5), change from baseline / GCSI, change from baseline / PAGI-SYM, change from baseline / PGI-C: 4 weeks; for Daily Diary Nausea Weekly Average, Effect size estimate: tradipitant treatment arm
Text: In a phase II study of tradipitant in patients with idiopathic and diabetic gastroparesis, participants enter a 4 week screening period prior to treatment with tradipitant, during which they answer a daily symptom questionnaire rating their nausea severity on a scale of 0 to 5, in which 0 represents no nausea, 1 represents very mild nausea, 2 represents mild nausea, 3 represents moderate nausea, 4 represents severe nausea, and 5 represents very severe nausea. After the 4 week screening period, 141 gastroparesis patients in an Intent to Treat (ITT) population enter the 4 week double blind randomized portion of the study, in which they receive either tradipitant 85 mg bid, or placebo. Several symptom severity scales are used to assess gastroparesis symptoms, including the […] (GCSI), Patients Assessment of Upper Gastrointestinal Disorders-Symptoms (PAGI-SYM), and Patient Global Impression of Change (PGI-C), as well as a Clinician Global Impression of Severity (CGI-S). After 4 weeks of blinded study drug treatment, patients have the opportunity to enter an additional 8 week open label extension, during which each subject receives tradipitant 85 mg bid.
Abbreviations used in Table 6 include: Daily Diary Nausea Score, 0-5 (DD-Nausea); Daily Diary Nausea Free Days, percent 0-100 (DD-% Nausea Free Days); Intent to Treat (ITT); Gastroparesis Cardinal Symptom Index (GCSI); Patient Assessment of Gastrointestinal Disorders-Symptoms (PAGI-SYM); Clinician Global Impression of Severity (CGI-S); Patient Global Impression of Change (PGI-C). For DD-Nausea, DD-% Nausea Free Days, GCSI, PAGI-SYM and CGI-S, the values shown are changes from baseline.

[3] = Plasma concentration of tradipitant 2 hours post-dose in dogs; type: in vivo, beagle dog; details: individual dogs
Description: All animals are dosed over a period of five (5) weeks, with each dog receiving one of five different treatments on each day of dosing. […] In cases where apomorphine is administered alone, without prior treatment with tradipitant or aprepitant, apomorphine is given at approximately the same time as when given in combination with tradipitant or aprepitant.

NK-2 receptor = target: T2, NK-2 receptor (Homo sapiens, UniProt P21452); test: NK-2 receptor inhibition; type: binding
T2 sequence (P21452 1-398): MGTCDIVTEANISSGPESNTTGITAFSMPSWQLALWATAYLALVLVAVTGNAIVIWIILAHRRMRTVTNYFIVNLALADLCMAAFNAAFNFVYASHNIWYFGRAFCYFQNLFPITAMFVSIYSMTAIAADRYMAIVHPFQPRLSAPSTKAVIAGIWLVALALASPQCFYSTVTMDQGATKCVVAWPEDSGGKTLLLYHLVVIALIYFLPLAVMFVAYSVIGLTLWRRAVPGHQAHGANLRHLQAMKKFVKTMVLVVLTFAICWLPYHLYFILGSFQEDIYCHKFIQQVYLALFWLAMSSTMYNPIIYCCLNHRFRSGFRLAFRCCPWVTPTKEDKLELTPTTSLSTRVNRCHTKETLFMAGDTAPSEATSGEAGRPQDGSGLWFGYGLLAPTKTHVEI

[4] = ITT Population, 85 mg bid, n = 73
[5] = Vomiting Population, 85 mg bid, n = 58

## O=C(c1ccccc1Cl)c1cccnc1-c1nnn(Cc2cc(C(F)(F)F)cc(C(F)(F)F)c2)c1-c1ccncc1 [Tradipitant, {2-[1-(3,5-bistrifluoromethylbenzyl)-5-pyridin-4-yl-1H-[1,2,3]triazol-4-yl]-pyridin-3-yl}-(2-chlorophenyl)-methanone]
NK-1 receptor; 0.1 mg/kg oral, 7 hours after administration
  suppression of agonist-induced vocalization: significantly active
NK-1 receptor; at and below 0.1 mg/kg
  inhibitory activity on vocalization: retains significant inhibitory activity
NK-1 receptor; oral, 10, 1.0, 0.1 and 0.05 mg/kg (each p<0.001)
  inhibition of agonist-induced vocalization: significant inhibition
NK-1 receptor; oral, guinea pig
  duration of activity: exceeds 7 hours
  minimum effective dose (MED), inhibition of vocalization: 0.025 mg/kg
[1]; 0.3 mg/kg oral
  Total No. Emetic Episodes: 1**
[1]; 1.0 mg/kg oral
  Total No. Emetic Episodes: 1**
[1]; 3.0 mg/kg oral
  Total No. Emetic Episodes: 1**
[1]; each dose tested (0.3, 1.0, and 3.0 mg/kg)
  effect against apomorphine-induced emesis: effective
[2]; 85 mg bid, confirms prior studies' findings
  tolerability: well tolerated
[2]; [4]
  CGI-S, change from baseline: −1.13
  DD-% Nausea Free Days, change from baseline: 28.8%
  DD-Nausea (Daily Diary Nausea Score, 0-5), change from baseline: −1.25
  GCSI, change from baseline: −0.93
  PAGI-SYM, change from baseline: −0.93
  PGI-C: 2.66
[2]; ITT Population, 85 mg bid, n = 73, listed as tradipitant
  DD-Nausea (Daily Diary Nausea Score, 0-5), change from baseline: −1.2
[2]; [5]
  CGI-S, change from baseline: −1.24
  DD-% Nausea Free Days, change from baseline: 32.3%
  DD-Nausea (Daily Diary Nausea Score, 0-5), change from baseline: −1.43
  GCSI, change from baseline: −1.10
  PAGI-SYM, change from baseline: −1.06
  PGI-C: 2.52
[2]; Vomiting Population, 85 mg bid, n = 58, listed as tradipitant
  DD-Nausea (Daily Diary Nausea Score, 0-5), change from baseline: −1.4
[2]; Week 1 vs Week 2
  Daily Diary Nausea Weekly Average, Effect size estimate: 0.314
[2]; Week 1 vs Week 3
  Daily Diary Nausea Weekly Average, Effect size estimate: 0.5556
[2]; Week 1 vs Week 4
  Daily Diary Nausea Weekly Average, Effect size estimate: 0.592
[2]; Week 2 vs Week 3
  Daily Diary Nausea Weekly Average, Effect size estimate: 0.2416
[2]; Week 2 vs Week 4
  Daily Diary Nausea Weekly Average, Effect size estimate: 0.278
[2]; Week 3 vs Week 4
  Daily Diary Nausea Weekly Average, Effect size estimate: 0.03647
[3]; 0.3 mg/kg oral
  Concentration of tradipitant in plasma: 90.93 ng/mL and 83.38 ng/mL and 22.59 ng/mL and 51.20 ng/mL and 41.33 ng/mL
[3]; 1.0 mg/kg oral
  Concentration of tradipitant in plasma: 240.84 ng/mL and 100.97 ng/mL and 61.56 ng/mL and 175.58 ng/mL and 86.49 ng/mL
[3]; 3.0 mg/kg oral
  Concentration of tradipitant in plasma: 316.20 ng/mL and 682.91 ng/mL and 119.79 ng/mL and 122.73 ng/mL and 256.58 ng/mL
NK-2 receptor
  inhibition at NK-2 receptor: no significant inhibition
